According to PubChem BioAssay (NCI):
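Interpolation was linear, between the two tested concentrations surrounding the appropriate level; five concentrations were tested over 48 hours in 96-well plates. The concentration for full growth arrest is given as TGI.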

Assays:
Assay in all cases: NCI tumour cell line growth inhibition, 48 h
786-0 renal = tested on: 786-0 renal
A498 renal = tested on: A498 renal
A549 NSCLC = tested on: A549 NSCLC
ACHN renal = tested on: ACHN renal
BT-549 breast = tested on: BT-549 breast
CAKI-1 renal = tested on: CAKI-1 renal
COLO 205 colon = tested on: COLO 205 colon
DU-145 prostate = tested on: DU-145 prostate
EKVX NSCLC = tested on: EKVX NSCLC
HCT-116 colon = tested on: HCT-116 colon
HCT-15 colon = tested on: HCT-15 colon
HL-60(TB) leukemia = tested on: HL-60(TB) leukemia
HOP-62 NSCLC = tested on: HOP-62 NSCLC
HOP-92 NSCLC = tested on: HOP-92 NSCLC
HS 578T breast = tested on: HS 578T breast
HT29 colon = tested on: HT29 colon
IGROV1 ovarian = tested on: IGROV1 ovarian
K-562 leukemia = tested on: K-562 leukemia
KM12 colon = tested on: KM12 colon
LOX IMVI melanoma = tested on: LOX IMVI melanoma
M14 melanoma = tested on: M14 melanoma
MALME-3M melanoma = tested on: MALME-3M melanoma
MCF7 breast = tested on: MCF7 breast
MDA-MB-231 breast = tested on: MDA-MB-231 breast
MDA-MB-435 = tested on: MDA-MB-435
MDA-N = tested on: MDA-N
MOLT-4 leukemia = tested on: MOLT-4 leukemia
NCI-H226 lung = tested on: NCI-H226 lung
NCI-H23 lung = tested on: NCI-H23 lung
NCI-H460 lung = tested on: NCI-H460 lung
NCI-H522 lung = tested on: NCI-H522 lung
NCI/ADR-RES ovarian = tested on: NCI/ADR-RES ovarian
OVCAR-3 ovarian = tested on: OVCAR-3 ovarian
OVCAR-4 ovarian = tested on: OVCAR-4 ovarian
OVCAR-5 ovarian = tested on: OVCAR-5 ovarian
OVCAR-8 ovarian = tested on: OVCAR-8 ovarian
PC-3 prostate = tested on: PC-3 prostate
RPMI-8226 leukemia = tested on: RPMI-8226 leukemia
RXF 393 renal = tested on: RXF 393 renal
SF-268 CNS = tested on: SF-268 CNS
SF-295 CNS = tested on: SF-295 CNS
SF-539 CNS = tested on: SF-539 CNS
SK-MEL-2 melanoma = tested on: SK-MEL-2 melanoma
SK-MEL-28 melanoma = tested on: SK-MEL-28 melanoma
SK-MEL-5 melanoma = tested on: SK-MEL-5 melanoma
SN12C renal = tested on: SN12C renal
SNB-19 CNS = tested on: SNB-19 CNS
SNB-75 CNS = tested on: SNB-75 CNS
SR leukemia = tested on: SR leukemia
SW-620 colon = tested on: SW-620 colon
T-47D breast = tested on: T-47D breast
TK-10 renal = tested on: TK-10 renal
U251 CNS = tested on: U251 CNS
UACC-257 melanoma = tested on: UACC-257 melanoma
UACC-62 melanoma = tested on: UACC-62 melanoma
UO-31 renal = tested on: UO-31 renal
CCRF-CEM leukemia = tested on: CCRF-CEM leukemia
HCC-2998 colon = tested on: HCC-2998 colon
SK-OV-3 ovarian = tested on: SK-OV-3 ovarian

In the case of O=C(CSc1nc2ccccc2c2ccccc12)c1ccccc1, the TGI (786-0 renal) is reported as > 100 µM, the TGI (A498 renal) is reported as > 100 µM and the TGI (A549 NSCLC) is reported as > 100 µM. The TGI (ACHN renal) was > 100 µM, the TGI (BT-549 breast) was > 100 µM and the TGI (CAKI-1 renal) was > 100 µM. For the same molecule, the TGI (COLO 205 colon) was > 100 µM, the TGI (DU-145 prostate) was > 100 µM and the TGI (EKVX NSCLC) was > 100 µM. For the same molecule, the TGI (HCT-116 colon) was > 100 µM, the TGI (HCT-15 colon) was > 100 µM and the TGI (HL-60(TB) leukemia) was > 100 µM. The TGI (HOP-62 NSCLC) was > 100 µM, the TGI (HOP-92 NSCLC) was > 100 µM and the TGI (HS 578T breast) was 0.0967 µM. For the same molecule, the TGI (HT29 colon) was > 100 µM, the TGI (IGROV1 ovarian) was > 100 µM and the TGI (K-562 leukemia) was > 100 µM. The TGI (KM12 colon) was > 100 µM, the TGI (LOX IMVI melanoma) was > 100 µM and the TGI (M14 melanoma) was > 100 µM. The TGI (MALME-3M melanoma) was > 100 µM, the TGI (MCF7 breast) was > 100 µM and the TGI (MDA-MB-231 breast) was > 100 µM. For the same molecule, the TGI (MDA-MB-435) was > 100 µM, the TGI (MDA-N) was > 100 µM and the TGI (MOLT-4 leukemia) was > 100 µM. For the same molecule, the TGI (NCI-H226 lung) was > 100 µM, the TGI (NCI-H23 lung) was > 100 µM and the TGI (NCI-H460 lung) was > 100 µM. For the same molecule, the TGI (NCI-H522 lung) was > 100 µM, the TGI (NCI/ADR-RES ovarian) was > 100 µM and the TGI (OVCAR-3 ovarian) was > 100 µM. For the same molecule, the TGI (OVCAR-4 ovarian) was > 100 µM, the TGI (OVCAR-5 ovarian) was > 100 µM and the TGI (OVCAR-8 ovarian) was > 100 µM. The TGI (PC-3 prostate) was > 100 µM, the TGI (RPMI-8226 leukemia) was > 100 µM and the TGI (RXF 393 renal) was > 100 µM. The TGI (SF-268 CNS) was > 100 µM, the TGI (SF-295 CNS) was > 100 µM and the TGI (SF-539 CNS) was > 100 µM. The TGI (SK-MEL-2 melanoma) was > 100 µM, the TGI (SK-MEL-28 melanoma) was > 100 µM and the TGI (SK-MEL-5 melanoma) was > 100 µM. For the same molecule, the TGI (SN12C renal) was > 100 µM, the TGI (SNB-19 CNS) was > 100 µM and the TGI (SNB-75 CNS) was 57.9 µM. The TGI (SR leukemia) was > 100 µM, the TGI (SW-620 colon) was > 100 µM and the TGI (T-47D breast) was > 100 µM. The TGI (TK-10 renal) was > 100 µM, the TGI (U251 CNS) was > 100 µM and the TGI (UACC-257 melanoma) was > 100 µM. The TGI (UACC-62 melanoma) was > 100 µM and the TGI (UO-31 renal) was > 100 µM.

In the case of Cc1cc2nc(C#N)c(N3CCN(c4ccc([N+](=O)[O-])cc4)CC3)nc2cc1C, the TGI (786-0 renal) is reported as > 92.9 µM, the TGI (A498 renal) is reported as > 100 µM and the TGI (A549 NSCLC) is reported as > 100 µM. For the same molecule, the TGI (ACHN renal) was > 100 µM, the TGI (BT-549 breast) was > 100 µM and the TGI (CAKI-1 renal) was > 100 µM. The TGI (CCRF-CEM leukemia) was > 100 µM, the TGI (COLO 205 colon) was > 100 µM and the TGI (DU-145 prostate) was > 100 µM. For the same molecule, the TGI (EKVX NSCLC) was > 100 µM, the TGI (HCC-2998 colon) was > 100 µM and the TGI (HCT-116 colon) was > 100 µM. For the same molecule, the TGI (HCT-15 colon) was > 100 µM, the TGI (HOP-62 NSCLC) was > 100 µM and the TGI (HOP-92 NSCLC) was > 100 µM. For the same molecule, the TGI (HS 578T breast) was 95.5 µM, the TGI (HT29 colon) was > 100 µM and the TGI (IGROV1 ovarian) was > 100 µM. For the same molecule, the TGI (K-562 leukemia) was > 100 µM, the TGI (KM12 colon) was > 100 µM and the TGI (LOX IMVI melanoma) was > 100 µM. For the same molecule, the TGI (M14 melanoma) was > 100 µM, the TGI (MALME-3M melanoma) was > 100 µM and the TGI (MCF7 breast) was > 100 µM. For the same molecule, the TGI (MDA-MB-231 breast) was > 100 µM, the TGI (MDA-MB-435) was > 100 µM and the TGI (MDA-N) was > 100 µM. For the same molecule, the TGI (NCI-H226 lung) was > 100 µM, the TGI (NCI-H23 lung) was > 100 µM and the TGI (NCI-H460 lung) was > 100 µM. The TGI (NCI-H522 lung) was > 100 µM, the TGI (NCI/ADR-RES ovarian) was > 100 µM and the TGI (OVCAR-3 ovarian) was > 100 µM. The TGI (OVCAR-4 ovarian) was > 100 µM, the TGI (OVCAR-5 ovarian) was > 100 µM and the TGI (OVCAR-8 ovarian) was > 100 µM. For the same molecule, the TGI (PC-3 prostate) was > 100 µM, the TGI (RPMI-8226 leukemia) was > 100 µM and the TGI (RXF 393 renal) was > 100 µM. The TGI (SF-268 CNS) was > 100 µM, the TGI (SF-295 CNS) was > 100 µM and the TGI (SF-539 CNS) was 81.2 µM. The TGI (SK-MEL-2 melanoma) was > 100 µM, the TGI (SK-MEL-28 melanoma) was > 100 µM and the TGI (SK-MEL-5 melanoma) was > 100 µM. For the same molecule, the TGI (SK-OV-3 ovarian) was > 100 µM, the TGI (SN12C renal) was > 100 µM and the TGI (SNB-19 CNS) was > 100 µM. The TGI (SNB-75 CNS) was > 100 µM, the TGI (SR leukemia) was > 100 µM and the TGI (SW-620 colon) was > 100 µM. The TGI (T-47D breast) was > 100 µM, the TGI (TK-10 renal) was > 100 µM and the TGI (U251 CNS) was > 100 µM. The TGI (UACC-257 melanoma) was > 100 µM, the TGI (UACC-62 melanoma) was > 100 µM and the TGI (UO-31 renal) was > 100 µM.
